# Laboratory results: publication PMC11042245, “Discovery of novel SOS1 inhibitors using machine learning” (RSC Medicinal Chemistry, 2024)
# Like-named read-outs stand apart in the source and are kept apart here.
# Columns and labels:
# SOS1 = details: cited from earlier work; for IC50: read-out: Actual IC50
# KRAS G12C/SOS1 = target: T1, KRAS G12C/SOS1 (Homo sapiens, UniProt Q07889); test: KRAS G12C/SOS1 PPI homogeneous time-resolved fluorescence (HTRF) assay; format: binding; details: for inhibition at 25 µg/mL: read-out: Inhibition rate at 25 μg mL^−1 (%); for inhibition at 0.5 µg/mL / inhibition at 10 µg/mL / inhibition at 40 µg/mL / inhibition at 50 µg/mL: read-out: Inhibition rate (%)
# T1 construct: purchased Cytoskeleton (SOS1); AntibodySystem (KRAS G12C)
# T1 sequence (Q07889 564-1049 limits assumed): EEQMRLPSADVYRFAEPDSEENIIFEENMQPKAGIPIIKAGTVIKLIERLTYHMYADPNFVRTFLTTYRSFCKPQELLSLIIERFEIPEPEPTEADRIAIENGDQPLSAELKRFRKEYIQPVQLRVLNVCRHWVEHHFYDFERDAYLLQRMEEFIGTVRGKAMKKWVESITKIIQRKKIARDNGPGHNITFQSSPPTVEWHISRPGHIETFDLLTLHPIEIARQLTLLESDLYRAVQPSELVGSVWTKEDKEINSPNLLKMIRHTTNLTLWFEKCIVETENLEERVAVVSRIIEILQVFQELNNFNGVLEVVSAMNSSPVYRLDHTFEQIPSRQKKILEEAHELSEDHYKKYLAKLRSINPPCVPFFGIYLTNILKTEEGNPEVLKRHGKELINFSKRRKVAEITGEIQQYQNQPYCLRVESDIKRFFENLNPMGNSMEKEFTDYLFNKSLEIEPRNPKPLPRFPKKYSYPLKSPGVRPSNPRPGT
# Experimental: All the test compounds were provided by the CNCL (https://www.cncl.org.cn/). […] The percentage inhibition was calculated by comparison with the buffer control group. The IC50 value was calculated by GraphPad Prism software in inhibitor versus normalized response (variable slope) mode.
# [1] = 10% reserved data (Table S3), ref ChEMBL database (version 31)
# [2] = converted from μg mL^−1, read-out: IC50 calculated using the molecular weight of each compound
# [3] = dose-response 0.5–50 μg mL^−1, read-out: IC50 (μg mL^−1)
compound,measurement,setting,value
COc1cc2nc(C)nc(N[C@H](C)c3cc(N)cc(C(F)(F)F)c3)c2cc1O[C@H]1CCN(C(C)=O)C1 [CHEMBL4435672],Actual pChEMBL,SOS1; [1],8.52
Cc1nc(N[C@H](C)c2cc(N)cc(C(F)(F)F)c2C)c2cc(C3CCS(=O)(=O)CC3)ccc2n1 [CHEMBL4441820],Actual pChEMBL,SOS1; [1],8.40
Cc1cccc([C@@H](C)Nc2nc(C)nc3ccc(C4CCS(=O)(=O)CC4)cc23)c1 [CHEMBL4443395],Actual pChEMBL,SOS1; [1],7.54
COCC(=O)N1CCC(c2cc3c(N[C@H](C)c4cccc(C)c4)nc(C)nc3cc2C)CC1 [CHEMBL4448274],Actual pChEMBL,SOS1; [1],7.47
COc1cc2nc(C)nc(N[C@H](C)c3cc(N)cc(C(F)(F)F)c3)c2cc1C1CCC(C(=O)N2CCOCC2)CC1 (some centres unmarked) [CHEMBL4451252],Actual pChEMBL,SOS1; [1],7.60
COc1cc2nc(C)nc(N[C@H](C)c3cccc(C(F)(F)F)c3)c2cc1-c1ccc(C(=O)N(C)CCO)cc1 [CHEMBL4453639],Actual pChEMBL,SOS1; [1],7.40
COc1cc2nc(C)nc(N[C@H](C)c3cccc(C)c3)c2cc1-c1ccc(=O)[nH]c1 [CHEMBL4455684],Actual pChEMBL,SOS1; [1],7.55
CCOc1cc2c(N[C@H](C)c3ccc(F)cc3)nc(C)nc2cn1 [CHEMBL4456281],Actual pChEMBL,SOS1; Table 3,5.03
same,IC50,SOS1; Table 3,9.3 µM
COc1cc2nc(C)nc(N[C@H](C)c3cccc(C(F)(F)F)c3F)c2cc1C1(O)CCC(C(=O)N(C)C)CC1 (some centres unmarked) [CHEMBL4459389],Actual pChEMBL,SOS1; [1],8.30
CC(=O)N[C@@H]1CCN(c2cc3c(NC(C)c4ccc(-c5ccccc5CN(C)C)s4)nc(C)nc3cn2)C1 (some centres unmarked) [CHEMBL4463000],Actual pChEMBL,SOS1; Table 3,7.82
same,IC50,SOS1; Table 3,0.015 µM
Cc1cccc([C@@H](C)Nc2nc(C)nc3ccc([C@H]4CC[C@H](C(=O)N5CC(C#N)C5)CC4)cc23)c1 [CHEMBL4463184],Actual pChEMBL,SOS1; [1],7.44
CONC(=O)CC(C)c1cc2c(N[C@H](C)c3cccc(C(F)(F)F)c3)nc(C)nc2cc1C (some centres unmarked) [CHEMBL4464090],Actual pChEMBL,SOS1; [1],8.10
COCC(=O)N1CCC(c2ccc3nc(C)nc(N[C@H](C)c4cc(N)cc(C(F)(F)F)c4)c3c2)CC1 [CHEMBL4469357],Actual pChEMBL,SOS1; [1],8.70
Cc1cccc([C@@H](C)Nc2nc(C)nc3cc(C)c(-c4ccc(=O)n(C)c4)cc23)c1 [CHEMBL4473214],Actual pChEMBL,SOS1; [1],7.44
COCCN(C)C(=O)C1CCC(c2cc3c(N[C@H](C)c4cc(N)cc(C(F)(F)F)c4)nc(C)nc3cc2OC)CC1 (some centres unmarked) [CHEMBL4513254],Actual pChEMBL,SOS1; [1],8.52
COc1cc2nc(C)nc(N[C@H](C)c3cccc(C(F)(F)F)c3)c2cc1-c1ccc(C(=O)N(C)C)cn1 [CHEMBL4515122],Actual pChEMBL,SOS1; [1],7.46
CC(=O)N1CCC(O)(c2ccc3nc(C)nc(N[C@H](C)c4cccc(C)c4)c3c2)CC1 [CHEMBL4524954],Actual pChEMBL,SOS1; [1],7.85
COc1cc2nc(C)nc(N[C@H](C)c3cccc(C(F)(F)CO)c3)c2cc1C1=CCC(C(=O)N(C)C)CC1 (some centres unmarked) [CHEMBL4529467],Actual pChEMBL,SOS1; [1],8.70
Cc1nc(N[C@H](C)c2cccc(C(F)(F)F)c2)c2cc([C@]3(O)CC[C@H](C(=O)N(C)C)CC3)ccc2n1 [CHEMBL4533487],Actual pChEMBL,SOS1; [1],7.57
Cc1nc(N[C@H](C)c2cc(N)cc(C(F)(F)F)c2)c2cc(C3CCN(C(=O)CN(C)C)CC3)ccc2n1 [CHEMBL4539190],Actual pChEMBL,SOS1; [1],8.52
Cc1nc(N[C@H](C)c2cc(N)cc(C(F)(F)F)c2)c2cc(C3CCC(C(=O)N4CCOCC4)CC3)ccc2n1 (some centres unmarked) [CHEMBL4540213],Actual pChEMBL,SOS1; [1],8.70
CCOc1cc2c(N[C@H](C)c3ccccc3)nc(C)nc2cn1 [CHEMBL4545109],Actual pChEMBL,SOS1; Table 3,5.69
same,IC50,SOS1; Table 3,2.06 µM
Cc1nc(N[C@H](C)c2cc(N)cc(C(F)(F)F)c2)c2cc(-c3cnn(CC(=O)N(C)C)c3)ccc2n1 [CHEMBL4546387],Actual pChEMBL,SOS1; [1],8.10
CCn1ccc(-c2cc3c(N[C@H](C)c4cc(N)cc(C(F)(F)F)c4)nc(C)nc3cc2C)cc1=O [CHEMBL4551748],Actual pChEMBL,SOS1; [1],8.30
Cc1nc(N[C@H](C)c2cc(N)cc(C(F)(F)F)c2)c2cc([C@H]3CC[C@H](C(=O)N(C)C)CC3)c(C)cc2n1 [CHEMBL4554249],Actual pChEMBL,SOS1; [1],8.70
Cc1cccc([C@@H](C)Nc2nc(C)nc3ccc(C4CC[S+]([O-])CC4)cc23)c1 (some centres unmarked) [CHEMBL4561965],Actual pChEMBL,SOS1; [1],7.66
Cc1nc(N[C@H](C)c2cccc(C(F)(F)F)c2)c2cc(-c3cc4n(n3)CCC(=O)N4)ccc2n1 [CHEMBL4570224],Actual pChEMBL,SOS1; [1],7.52
COc1cc2nc(C)nc(N[C@H](C)c3cc(N)cc(C(F)(F)F)c3F)c2cc1O[C@H]1CCOC1 [CHEMBL4572076],Actual pChEMBL,SOS1; [1],8.30
COc1cc2nc(C)nc(N[C@H](C)c3cc(N)cc(C(F)(F)F)c3F)c2cc1C1CCC(C(=O)N(C)C)CC1 (some centres unmarked) [CHEMBL4572922],Actual pChEMBL,SOS1; [1],7.46
Cc1cccc([C@@H](C)Nc2nc(C)nc3ccc(C4CCOCC4)cc23)c1 [CHEMBL4583745],Actual pChEMBL,SOS1; [1],7.37
COc1cc2nc(C)nc(N[C@H](C)c3cccc(C(F)(F)F)c3)c2cc1OC [CHEMBL5084571],Actual pChEMBL,SOS1; Table 3,6.97
same,IC50,SOS1; Table 3,0.106 µM
COc1cc2nc(C)nc(N[C@H](C)c3cccc(S(N)(=O)=O)c3)c2cc1OC [CHEMBL5085531],Actual pChEMBL,SOS1; Table 3,7.25
same,IC50,SOS1; Table 3,0.056 µM
COc1cc2nc(C)nc(N[C@H](C)c3ccccc3)c2cc1OC [CHEMBL5087955],Actual pChEMBL,SOS1; Table 3,6.34
same,IC50,SOS1; Table 3,0.453 µM
CCC(C)NC(=O)c1ccc(Cn2c(=O)c3cc(OC)c(OC)cc3n(Cc3ccccc3F)c2=O)cc1 (centres unmarked) [CL00817024],inhibition at 25 µg/mL,KRAS G12C/SOS1,2 ± 0.8%
CCOCCCN(C)C1CCN(c2ncc(NC(=O)c3ccc(C)cc3)cc2C(=O)O)CC1 [CL00838284],inhibition at 25 µg/mL,KRAS G12C/SOS1,25.3 ± 0.3%
CC(C)c1cccc2cc3c(nc12)OCCN(CCc1ccc2c(c1)OCO2)C3 [CL01132463],inhibition at 25 µg/mL,KRAS G12C/SOS1,-6.5 ± 2.5%
Cc1ccc(S(=O)(=O)Nc2cnc(N3CCCC3)c(C(=O)O)c2)c(C)c1 [CL01545355],IC50,KRAS G12C/SOS1; [2],94.6 µM
same,IC50,KRAS G12C/SOS1; [3],94.6 µM
same,inhibition at 0.5 µg/mL,KRAS G12C/SOS1,-1.6 ± 0.2%
same,inhibition at 10 µg/mL,KRAS G12C/SOS1,17.9 ± 3.3%
same,inhibition at 40 µg/mL,KRAS G12C/SOS1,53.3 ± 0.5%
same,inhibition at 50 µg/mL,KRAS G12C/SOS1,61.6 ± 4%
same,inhibition at 25 µg/mL,KRAS G12C/SOS1,38 ± 3.3%
CC(C)c1ccc(S(=O)(=O)Nc2cnc(N3CCCC3)c(C(=O)O)c2)cc1 [CL01545365],IC50,KRAS G12C/SOS1; [2],53.7 µM
same,IC50,KRAS G12C/SOS1; [3],53.7 µM
same,inhibition at 0.5 µg/mL,KRAS G12C/SOS1,0.8 ± 1.1%
same,inhibition at 10 µg/mL,KRAS G12C/SOS1,31.9 ± 2.8%
same,inhibition at 40 µg/mL,KRAS G12C/SOS1,66.6 ± 0.1%
same,inhibition at 50 µg/mL,KRAS G12C/SOS1,72.3 ± 2.7%
same,inhibition at 25 µg/mL,KRAS G12C/SOS1,53.8 ± 1.6%
Cc1ccc(S(=O)(=O)Nc2cnc(N3CC=C(c4ccccc4C)CC3)c(C(=O)O)c2)c(C)c1 [CL01545444],IC50,KRAS G12C/SOS1; [2],103 µM
same,IC50,KRAS G12C/SOS1; [3],103 µM
same,inhibition at 0.5 µg/mL,KRAS G12C/SOS1,1.5 ± 1.1%
same,inhibition at 10 µg/mL,KRAS G12C/SOS1,14.5 ± 3.3%
same,inhibition at 40 µg/mL,KRAS G12C/SOS1,45.5%
same,inhibition at 50 µg/mL,KRAS G12C/SOS1,49.9 ± 0.5%
same,inhibition at 25 µg/mL,KRAS G12C/SOS1,31.1 ± 1.4%
Cc1ccccc1C1=CCN(c2ncc(NS(=O)(=O)c3ccc(C(C)C)cc3)cc2C(=O)O)CC1 [CL01545464],IC50,KRAS G12C/SOS1; [2],66.3 µM
same,IC50,KRAS G12C/SOS1; [3],66.3 µM
same,inhibition at 0.5 µg/mL,KRAS G12C/SOS1,3.4 ± 1.8%
same,inhibition at 10 µg/mL,KRAS G12C/SOS1,24.2 ± 1.4%
same,inhibition at 40 µg/mL,KRAS G12C/SOS1,55.3 ± 3.2%
same,inhibition at 50 µg/mL,KRAS G12C/SOS1,60.5 ± 4%
same,inhibition at 25 µg/mL,KRAS G12C/SOS1,42.9 ± 3.4%
Cc1nc(N[C@H](C)c2cccc(C(F)F)c2F)c2cc3c(cc2n1)OC[C@H]1CN(C(=O)C2(C#N)CC2)CCN31 [compound 37],Actual pChEMBL value,SOS1; external validation data,8.33
